# Data published in ChEMBL document CHEMBL1201862, “PubChem BioAssay data set” (2004).
# Calls of active or inactive are those of the source.
# Legend:
# [1] = target: T1, Sentrin-specific protease 8 (Homo sapiens, UniProt Q96LD8); assay type: functional;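 also: luminescence read-out of SENP8 inhibition, dose-response confirmation following an ultra-high-throughput screen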
# T1 sequence (Q96LD8 whole entry): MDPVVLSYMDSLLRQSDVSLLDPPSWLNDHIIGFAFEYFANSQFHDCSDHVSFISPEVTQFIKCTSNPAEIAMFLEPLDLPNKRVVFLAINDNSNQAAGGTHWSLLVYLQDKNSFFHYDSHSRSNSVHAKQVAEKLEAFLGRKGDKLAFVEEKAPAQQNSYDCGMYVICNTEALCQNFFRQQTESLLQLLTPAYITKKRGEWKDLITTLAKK
# [2] = target: T2, Sentrin-specific protease 6 (Homo sapiens, UniProt Q9GZR1); assay type: functional;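 also: Luminescence-based dose-response confirmatory assay of SENP6 inhibition, following up an ultra-high-throughput screen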
# T2 sequence (Q9GZR1 whole entry): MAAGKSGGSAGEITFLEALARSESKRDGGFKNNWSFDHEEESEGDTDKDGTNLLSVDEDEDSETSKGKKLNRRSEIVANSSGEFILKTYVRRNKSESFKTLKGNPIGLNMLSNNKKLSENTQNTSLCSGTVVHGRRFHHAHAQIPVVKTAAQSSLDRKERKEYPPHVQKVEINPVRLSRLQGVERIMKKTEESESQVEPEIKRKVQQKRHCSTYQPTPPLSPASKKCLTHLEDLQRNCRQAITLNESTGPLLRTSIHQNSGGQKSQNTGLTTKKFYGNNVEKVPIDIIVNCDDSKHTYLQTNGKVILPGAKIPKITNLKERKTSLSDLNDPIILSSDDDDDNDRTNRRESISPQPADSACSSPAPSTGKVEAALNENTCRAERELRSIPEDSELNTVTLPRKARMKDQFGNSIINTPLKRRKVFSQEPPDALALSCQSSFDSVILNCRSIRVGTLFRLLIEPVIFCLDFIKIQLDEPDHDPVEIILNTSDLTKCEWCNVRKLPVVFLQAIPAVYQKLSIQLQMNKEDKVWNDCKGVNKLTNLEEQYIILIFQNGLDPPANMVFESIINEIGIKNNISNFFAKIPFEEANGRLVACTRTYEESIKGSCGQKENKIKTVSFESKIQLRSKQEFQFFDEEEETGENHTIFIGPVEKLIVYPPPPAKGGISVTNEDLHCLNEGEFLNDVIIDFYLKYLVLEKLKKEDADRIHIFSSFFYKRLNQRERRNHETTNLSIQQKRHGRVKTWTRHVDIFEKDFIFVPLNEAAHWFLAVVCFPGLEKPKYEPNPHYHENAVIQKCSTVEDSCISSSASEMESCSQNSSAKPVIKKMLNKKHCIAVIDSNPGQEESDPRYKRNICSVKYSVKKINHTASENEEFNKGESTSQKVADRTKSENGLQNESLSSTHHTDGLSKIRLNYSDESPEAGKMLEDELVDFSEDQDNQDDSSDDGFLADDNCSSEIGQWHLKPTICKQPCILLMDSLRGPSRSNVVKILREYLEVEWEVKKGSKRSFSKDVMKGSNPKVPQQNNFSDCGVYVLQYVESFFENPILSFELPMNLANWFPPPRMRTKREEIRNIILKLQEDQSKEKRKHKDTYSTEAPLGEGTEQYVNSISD
# [3] = target: T3, Caspase-3 (Homo sapiens, UniProt P42574); assay type: functional;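 also: Dose-response selectivity test against caspase-3 for candidate inhibitors of sentrin-specific proteases (SENPs)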
# T3 sequence (P42574 whole entry): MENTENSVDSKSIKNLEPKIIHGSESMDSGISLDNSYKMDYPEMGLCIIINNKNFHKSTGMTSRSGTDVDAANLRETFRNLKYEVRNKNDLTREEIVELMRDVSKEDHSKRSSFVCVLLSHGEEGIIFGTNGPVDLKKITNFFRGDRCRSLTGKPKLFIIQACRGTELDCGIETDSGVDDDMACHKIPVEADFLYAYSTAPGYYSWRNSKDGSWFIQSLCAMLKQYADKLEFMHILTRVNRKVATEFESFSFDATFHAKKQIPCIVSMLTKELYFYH
# [4] = target: T4, Sentrin-specific protease 7 (Homo sapiens, UniProt Q9BQF6); assay type: functional;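 also: Luminescence-based dose-response confirmation of ultra-high-throughput screening hits, measuring inhibition of SENP7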
# T4 sequence (Q9BQF6 whole entry): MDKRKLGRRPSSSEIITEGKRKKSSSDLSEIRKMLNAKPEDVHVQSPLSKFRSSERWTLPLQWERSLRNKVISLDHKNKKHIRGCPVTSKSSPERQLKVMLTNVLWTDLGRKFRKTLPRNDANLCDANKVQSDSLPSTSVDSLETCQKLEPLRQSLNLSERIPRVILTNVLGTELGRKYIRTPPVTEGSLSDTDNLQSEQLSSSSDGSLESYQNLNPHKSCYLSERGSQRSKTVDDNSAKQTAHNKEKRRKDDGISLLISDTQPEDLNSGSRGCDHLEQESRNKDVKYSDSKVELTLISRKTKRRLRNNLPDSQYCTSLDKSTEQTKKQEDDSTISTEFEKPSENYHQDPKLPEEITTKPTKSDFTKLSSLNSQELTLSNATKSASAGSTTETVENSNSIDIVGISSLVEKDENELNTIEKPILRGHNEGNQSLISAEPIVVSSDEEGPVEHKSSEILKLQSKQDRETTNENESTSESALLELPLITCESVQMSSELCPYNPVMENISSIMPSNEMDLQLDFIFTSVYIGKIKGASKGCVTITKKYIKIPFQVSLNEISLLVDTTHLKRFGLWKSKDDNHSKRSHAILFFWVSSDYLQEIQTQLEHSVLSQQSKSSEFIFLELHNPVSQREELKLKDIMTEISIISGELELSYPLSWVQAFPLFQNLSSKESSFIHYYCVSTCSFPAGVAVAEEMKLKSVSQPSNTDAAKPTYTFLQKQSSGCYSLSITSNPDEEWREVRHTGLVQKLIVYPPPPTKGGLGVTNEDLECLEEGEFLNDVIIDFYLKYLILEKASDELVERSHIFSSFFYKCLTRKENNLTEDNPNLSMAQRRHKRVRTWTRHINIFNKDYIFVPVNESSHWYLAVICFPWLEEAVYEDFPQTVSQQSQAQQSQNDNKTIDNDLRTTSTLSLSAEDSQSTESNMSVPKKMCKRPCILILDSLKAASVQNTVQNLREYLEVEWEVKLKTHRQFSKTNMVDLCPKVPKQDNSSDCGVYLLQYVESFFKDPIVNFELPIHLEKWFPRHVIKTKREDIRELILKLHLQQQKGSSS
# [5] = target: T5, Heat shock factor protein 1 (Mus musculus, UniProt P38532); experiment: HSF1 potentiators in luciferase reporter cells, confirmation, cell-based, NIH3T3, luminescence, dose retest (AID 435004); assay type: functional;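 also: stress induced by proteasome inhibitor MG132 added 30 min after compound; luciferase reporter driven by HSF1 response element in NIH3T3 cells; actives raise luminescence as potentiators of the MG132 stress response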
# T5 sequence (P38532 whole entry): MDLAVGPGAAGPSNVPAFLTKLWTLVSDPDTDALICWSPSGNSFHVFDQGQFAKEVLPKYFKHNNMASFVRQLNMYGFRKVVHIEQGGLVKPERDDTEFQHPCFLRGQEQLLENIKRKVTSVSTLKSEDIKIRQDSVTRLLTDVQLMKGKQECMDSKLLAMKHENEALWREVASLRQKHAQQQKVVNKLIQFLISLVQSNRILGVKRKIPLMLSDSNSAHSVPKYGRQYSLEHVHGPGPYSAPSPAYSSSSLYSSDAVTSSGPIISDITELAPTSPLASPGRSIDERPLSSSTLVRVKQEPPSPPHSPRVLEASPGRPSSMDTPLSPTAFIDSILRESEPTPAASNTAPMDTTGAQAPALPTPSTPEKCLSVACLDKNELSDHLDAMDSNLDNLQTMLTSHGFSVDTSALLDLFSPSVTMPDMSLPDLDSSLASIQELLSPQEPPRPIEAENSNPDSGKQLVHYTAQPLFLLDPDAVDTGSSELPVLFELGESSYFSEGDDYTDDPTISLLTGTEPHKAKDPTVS
# [6] = Luminescence Cell-Based Dose Retest to Confirm Inhibitors of Cancer Stem Cells. [Related pubchem assays (depositor defined):AID2717, AID2721]; assay type: functional; details: Homo sapiens
# [7] = target: T6, Fatty acid synthase (Homo sapiens, UniProt P49327); experiment: FAS thioesterase domain inhibitors, dose response, biochemical, kinetic fluorescence intensity (AID 624326); assay type: functional;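 also: rate of fluorescence rise from hydrolysis of a fluorogenic O-methyl fluorescein ester substrate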
# T6 sequence (P49327 whole entry, the tested form may be a part): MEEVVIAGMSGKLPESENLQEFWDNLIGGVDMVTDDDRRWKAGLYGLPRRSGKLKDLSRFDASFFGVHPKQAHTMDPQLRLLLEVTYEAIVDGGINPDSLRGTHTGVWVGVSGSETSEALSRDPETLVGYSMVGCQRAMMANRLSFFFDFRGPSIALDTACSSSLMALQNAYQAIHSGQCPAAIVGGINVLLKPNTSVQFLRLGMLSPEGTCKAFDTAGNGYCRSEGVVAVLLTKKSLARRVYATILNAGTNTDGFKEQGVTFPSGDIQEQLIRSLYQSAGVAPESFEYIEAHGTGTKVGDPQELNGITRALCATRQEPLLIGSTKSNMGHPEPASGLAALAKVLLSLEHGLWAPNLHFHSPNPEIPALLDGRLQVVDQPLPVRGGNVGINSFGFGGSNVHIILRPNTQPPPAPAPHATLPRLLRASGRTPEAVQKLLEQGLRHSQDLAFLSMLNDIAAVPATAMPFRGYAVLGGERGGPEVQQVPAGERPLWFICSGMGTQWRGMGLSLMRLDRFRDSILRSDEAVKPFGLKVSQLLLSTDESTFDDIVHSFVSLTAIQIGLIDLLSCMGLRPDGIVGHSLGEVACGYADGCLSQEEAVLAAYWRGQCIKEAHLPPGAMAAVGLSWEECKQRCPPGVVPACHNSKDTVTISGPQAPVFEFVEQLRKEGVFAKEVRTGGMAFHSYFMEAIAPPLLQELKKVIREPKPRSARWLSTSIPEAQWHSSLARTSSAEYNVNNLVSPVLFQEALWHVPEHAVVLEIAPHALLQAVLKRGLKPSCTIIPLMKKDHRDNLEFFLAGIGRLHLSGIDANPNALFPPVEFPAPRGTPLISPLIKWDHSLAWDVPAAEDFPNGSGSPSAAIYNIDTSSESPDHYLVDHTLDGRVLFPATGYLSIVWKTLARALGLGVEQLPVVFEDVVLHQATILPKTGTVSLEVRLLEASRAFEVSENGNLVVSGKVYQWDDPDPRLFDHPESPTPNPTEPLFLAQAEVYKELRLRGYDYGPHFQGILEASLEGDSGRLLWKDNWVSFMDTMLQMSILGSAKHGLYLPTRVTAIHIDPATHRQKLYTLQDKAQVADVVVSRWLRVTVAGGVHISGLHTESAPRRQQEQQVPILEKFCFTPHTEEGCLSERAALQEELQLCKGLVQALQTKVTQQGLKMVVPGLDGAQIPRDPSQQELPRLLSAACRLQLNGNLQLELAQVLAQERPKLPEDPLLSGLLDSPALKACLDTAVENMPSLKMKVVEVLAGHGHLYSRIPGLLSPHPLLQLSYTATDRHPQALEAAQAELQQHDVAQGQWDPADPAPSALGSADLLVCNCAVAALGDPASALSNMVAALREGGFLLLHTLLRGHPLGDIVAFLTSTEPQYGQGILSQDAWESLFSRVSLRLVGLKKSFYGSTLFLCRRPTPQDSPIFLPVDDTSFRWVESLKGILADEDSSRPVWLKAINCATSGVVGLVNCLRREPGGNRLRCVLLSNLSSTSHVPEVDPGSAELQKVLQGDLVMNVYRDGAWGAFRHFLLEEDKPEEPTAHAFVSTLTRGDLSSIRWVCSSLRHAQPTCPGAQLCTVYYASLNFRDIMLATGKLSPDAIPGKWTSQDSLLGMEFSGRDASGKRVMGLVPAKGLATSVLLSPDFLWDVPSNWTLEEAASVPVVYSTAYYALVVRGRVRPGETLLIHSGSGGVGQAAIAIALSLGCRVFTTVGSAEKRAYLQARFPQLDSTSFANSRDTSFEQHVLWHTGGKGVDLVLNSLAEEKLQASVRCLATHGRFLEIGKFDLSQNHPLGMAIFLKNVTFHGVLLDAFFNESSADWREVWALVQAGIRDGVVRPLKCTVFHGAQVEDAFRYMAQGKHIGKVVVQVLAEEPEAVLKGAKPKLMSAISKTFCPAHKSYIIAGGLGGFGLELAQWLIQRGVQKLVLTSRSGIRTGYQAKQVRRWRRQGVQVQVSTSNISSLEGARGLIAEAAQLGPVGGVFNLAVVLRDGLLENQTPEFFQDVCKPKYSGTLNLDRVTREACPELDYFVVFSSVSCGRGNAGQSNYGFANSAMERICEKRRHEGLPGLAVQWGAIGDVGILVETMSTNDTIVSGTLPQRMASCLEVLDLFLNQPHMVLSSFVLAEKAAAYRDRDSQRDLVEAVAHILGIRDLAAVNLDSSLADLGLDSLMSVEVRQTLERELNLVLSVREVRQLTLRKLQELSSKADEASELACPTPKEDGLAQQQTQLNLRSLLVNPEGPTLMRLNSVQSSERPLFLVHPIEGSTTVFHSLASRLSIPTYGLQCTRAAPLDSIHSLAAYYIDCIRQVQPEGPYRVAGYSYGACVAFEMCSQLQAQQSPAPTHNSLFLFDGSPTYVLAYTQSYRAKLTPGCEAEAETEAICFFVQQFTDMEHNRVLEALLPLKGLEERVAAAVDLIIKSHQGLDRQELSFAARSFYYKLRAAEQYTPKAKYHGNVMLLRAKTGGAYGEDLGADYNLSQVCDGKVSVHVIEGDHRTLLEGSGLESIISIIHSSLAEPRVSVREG
# [8] = target: T6, Fatty acid synthase; experiment: FAS thioesterase domain inhibitors, dose response, biochemical, endpoint fluorescence intensity, uHTS hits (AID 624327); assay type: functional;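 also: fluorescence from hydrolysis of an O-methyl fluorescein acyl ester substrate by the enzyme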
# [9] = target: T7, Corticotropin-releasing factor receptor 2/Corticotropin-releasing factor-binding protein (Homo sapiens, UniProt P24387+Q13324); experiment: Dose Response confirmation of uHTS hits for small molecule antagonists of the CRF-binding protein and CRF-R2 receptor complex.; assay type: functional; details: read-out: IC50_Mean
# T7 sequence (Q13324 whole entry): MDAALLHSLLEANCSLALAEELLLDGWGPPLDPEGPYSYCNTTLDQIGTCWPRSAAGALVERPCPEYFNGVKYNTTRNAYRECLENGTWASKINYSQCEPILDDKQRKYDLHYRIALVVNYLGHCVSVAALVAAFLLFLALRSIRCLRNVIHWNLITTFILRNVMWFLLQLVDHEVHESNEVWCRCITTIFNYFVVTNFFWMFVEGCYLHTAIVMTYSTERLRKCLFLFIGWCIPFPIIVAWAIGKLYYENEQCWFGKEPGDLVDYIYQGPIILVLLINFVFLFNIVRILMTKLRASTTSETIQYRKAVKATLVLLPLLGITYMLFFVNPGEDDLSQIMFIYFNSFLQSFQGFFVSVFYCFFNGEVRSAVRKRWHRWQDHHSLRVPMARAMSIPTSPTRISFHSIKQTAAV
# T7 sequence (P24387 whole entry): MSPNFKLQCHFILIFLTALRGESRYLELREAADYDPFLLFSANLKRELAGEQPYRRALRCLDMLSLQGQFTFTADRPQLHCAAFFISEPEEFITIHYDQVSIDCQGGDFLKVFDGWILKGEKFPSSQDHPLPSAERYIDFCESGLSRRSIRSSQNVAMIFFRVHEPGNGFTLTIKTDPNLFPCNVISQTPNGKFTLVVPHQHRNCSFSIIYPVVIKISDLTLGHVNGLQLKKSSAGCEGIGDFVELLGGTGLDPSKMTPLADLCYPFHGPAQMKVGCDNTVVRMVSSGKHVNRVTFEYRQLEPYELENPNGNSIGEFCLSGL
# [10] = target: T7, Corticotropin-releasing factor receptor 2/Corticotropin-releasing factor-binding protein; experiment: activators of CRF receptor 2 with binding protein – uHTS hits, confirmation (AID 602473); assay type: functional; details: read-out: EC50_Mean
# [11] = test system: Escherichia coli; experiment: microbe, parasite or virus in culture
# [12] = target: T8, Rac GTPase-activating protein 1 (Homo sapiens, UniProt Q9H0H5); experiment: MgcRacGAP GTPase-activating activity inhibitors, confirmation, biochemical, ADP Hunter fluorescence, primary and confirmatory (AID 624330); assay type: functional
# T8 sequence (Q9H0H5 whole entry): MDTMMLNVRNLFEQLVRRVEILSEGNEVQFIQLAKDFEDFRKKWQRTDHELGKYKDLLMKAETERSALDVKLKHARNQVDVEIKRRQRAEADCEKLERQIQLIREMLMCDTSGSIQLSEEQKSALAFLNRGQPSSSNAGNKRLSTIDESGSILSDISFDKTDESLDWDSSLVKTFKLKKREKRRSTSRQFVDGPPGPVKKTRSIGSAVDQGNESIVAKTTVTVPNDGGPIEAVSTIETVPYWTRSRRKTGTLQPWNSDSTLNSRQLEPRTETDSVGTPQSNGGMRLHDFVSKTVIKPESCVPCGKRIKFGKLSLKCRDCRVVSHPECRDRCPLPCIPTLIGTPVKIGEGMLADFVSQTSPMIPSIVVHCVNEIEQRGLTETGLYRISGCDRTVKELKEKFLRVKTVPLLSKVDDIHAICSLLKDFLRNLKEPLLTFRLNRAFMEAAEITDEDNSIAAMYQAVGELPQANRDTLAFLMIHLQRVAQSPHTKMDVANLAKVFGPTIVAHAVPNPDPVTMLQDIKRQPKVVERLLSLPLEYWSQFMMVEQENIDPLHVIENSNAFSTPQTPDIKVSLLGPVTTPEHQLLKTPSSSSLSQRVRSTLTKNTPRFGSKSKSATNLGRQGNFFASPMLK
# [13] = test system: Escherichia coli; experiment: microbe, parasite or virus in culture; remark: listed apart in the source
# [14] = target: T9, DNA repair protein RAD52 homolog (Homo sapiens, UniProt P43351); assay type: functional, biochemical
# T9 sequence (P43351 whole entry): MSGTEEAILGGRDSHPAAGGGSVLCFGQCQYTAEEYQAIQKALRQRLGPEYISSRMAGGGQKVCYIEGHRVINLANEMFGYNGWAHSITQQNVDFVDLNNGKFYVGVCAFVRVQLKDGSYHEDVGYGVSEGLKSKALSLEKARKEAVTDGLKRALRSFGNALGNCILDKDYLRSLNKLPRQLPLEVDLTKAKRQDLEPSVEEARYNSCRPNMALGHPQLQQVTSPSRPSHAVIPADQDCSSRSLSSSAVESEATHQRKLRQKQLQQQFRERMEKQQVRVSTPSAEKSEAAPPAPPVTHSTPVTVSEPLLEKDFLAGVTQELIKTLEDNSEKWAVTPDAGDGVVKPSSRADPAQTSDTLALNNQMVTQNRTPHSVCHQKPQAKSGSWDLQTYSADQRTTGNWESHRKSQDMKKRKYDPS
Structure (SMILES),IC50 [1],IC50 [2],IC50 [3],IC50 [4],EC50 [5],AC50 [6],IC50 [7],IC50 [8],IC50 [9],EC50 [10],AC50 [11],IC50 [12],AC50 [13],AC50 [14]
O=C(O)c1ccc(-c2nc(O)c3c(-c4ccccc4)csc3n2)cc1,61.6 µM (active),56.1 µM (active),> 100 µM (inactive),40.4 µM (active),–,–,–,–,–,–,–,–,–,–
COc1nc(C)ccc1-c1noc(-c2cccs2)n1,9.82 µM (active),32.7 µM (active),13 µM (active),5.07 µM (active),> 260 µM (inactive),–,–,–,–,–,–,–,–,–
COc1ccc2nc(NC(=O)c3ccc([N+](=O)[O-])o3)sc2c1,22.9 µM (active),13.8 µM (active),28.2 µM (active),4.54 µM (active),–,1.96 µM (active),8.39 µM (active),14.5 µM (active),–,–,–,–,–,–
NCC[C@H](O)C(=O)N[C@@H]1C[C@H](N)[C@@H](O[C@H]2O[C@H](CN)[C@@H](O)[C@H](O)[C@H]2O)[C@H](O)[C@H]1O[C@H]1O[C@H](CO)[C@@H](O)[C@H](N)[C@H]1O,–,–,–,–,–,–,–,–,> 47.1 µM (inactive),> 53 µM (inactive),4.69 µM (active),113 µM (active),14.9 µM (active),5.91 µM (active)
